Data on 4 compounds can be found in patent publication US6455562B1, “Cyclic AMP-specific phosphodiesterase inhibitors” (Icos Corporation, priority 1999, dated 2002).

The conditions of series [1]: in vivo; cited from earlier work.
The test system of series [2] is recombinant human PDE4. To be noted: reported, prior art; read-out: reported 50% Inhibitory Concentration (IC50) with respect to inhibiting recombinant human PDE4; cited from earlier work.
The test system of series [3] is T1, recombinant human PDE4.
T1 construct: other: recombinant human PDE4
Nature of the series: PDE4 inhibition, IC50 using recombinant human PDE4 (charcoal separation PDE assay). Type of series: biochemical. Particulars: read-out: IC50 value versus human recombinant PDE4. Here is the method:
The compounds of structural formula (II) were tested for an ability to inhibit PDE4. The ability of a compound to inhibit PDE4 activity is related to the IC50 value for the compound, i.e., the concentration of inhibitor required for 50% inhibition of enzyme activity. The IC50 value for compounds of structural formula (II) were determined using recombinant human PDE4. […]
Phosphodiesterase activity of the preparations was determined as follows. […] The [32P]5′-AMP or [32P]5′-GMP then was quantitatively converted to free [32P]phosphate and unlabeled adenosine or guanosine by the action of snake venom 5′-nucleotidase. […] PDE enzyme was present in quantities that yield <30% total hydrolysis of substrate (linear assay conditions). […] The reaction was stopped by addition of 200 μL of activated charcoal (25 mg/mL suspension in 0.1M NaH2PO4, pH 4) After centrifugation (750 X g for 3 minutes) to sediment the charcoal, a sample of the supernatant was taken for radioactivity determination in a scintillation counter and the PDE activity was calculated.

Like-named read-outs stand apart in the source and are kept apart here.

For `COc1ccc([C@@H]2CNC(=O)C2)cc1OC1CCCC1` (single isomer, unassigned) [(−)-enantiomer of rolipram, R-rolipram], the “emetic potential relative to the (+)-enantiomer (S-rolipram)” value in series [1] is listed as “about ten-fold more emetic”.
Regarding `COC(=O)N1CC(c2ccc(OC)c(OC3CCCC3)c2)C(C)(C(C)=O)C1` (stereo not shown) [formula (I)], the IC50 in the series on recombinant human PDE4 [2] is roughly 2 nM.
Take `COc1ccc([C@@H]2CN(Cc3ccccc3)C[C@@]2(C)c2nn[nH]n2)cc1OC1CCCC1` [Example 1]: the IC50 in the series with recombinant human PDE4 [3] came out at 7900 nM.
On to `COc1ccc(C2CNC(=O)C2)cc1OC1CCCC1` (stereo not shown) [Rolipram], for which the IC50 with recombinant human PDE4 [2] was roughly 200 nM.
